Reference: patent publication US5352608A (priority 1992, dated 1994)
“Also recorded” adds a separate entry of the source. Like-named read-outs stand apart in the source and are kept apart here.

Columns and labels:
R. sphaeroides 2.4.1 [1] = test: Hydrogen evolution from oxyanion reduction; assay type: cell-based, Rhodobacter sphaeroides
R. sphaeroides 2.4.1 [2] = assay type: cell-based, Rhodobacter sphaeroides
[3] = tested on: Rhodobacter capsulatus B10; test: Intrinsic HLR to TeO3^2- (MIC); assay type: cell-based
R. sphaeroides MM1004 = assay type: cell-based, Rhodobacter sphaeroides; details: SMM succinate
Procedure: (§1) All Proteobacteria were grown at 30° C. with the exception of E. coli which was cultured at 37° C. on a Gyrotary shaker. Cultures of R. sphaeroides and R. gelatinosus were grown in LB, YP, or SMM containing either 0.4% succinate, 0.4% malate, or 0.4% butyrate as a carbon source. Cultures of R. capsulatus were grown in RCVB minimal medium containing 0.4% malate as a carbon source; R. rubrum was grown in SMM containing 0.4% malate, and 0.1% yeast extract. R. palustris and R. viridis were grown in SMM containing 0.4% malate, 0.1% yeast extract, and 50 μg/ml each of p-aminobenzoic acid and cyanocobalamin. […] Anaerobic-dark growth of R. sphaeroides on SMM medium containing DMSO, and photoheterotrophic growth conditions have been previously reported.
(§2) Several growth conditions were examined to determine requirements for tellurite reduction in vivo. Table 5 indicates the growth conditions tested.
(§3) ^a MIC were determined in SMM containing succinate at 30° C.
(§4) ^c Supplemented with 60 mM DMSO.

[4] = tested on: tellurite reductase activity, R. sphaeroides PUHA1; test: TeO3^2- -dependent FADH2 oxidation in subcellular fractions; assay type: biochemical, Rhodobacter sphaeroides; details: 100 μg/ml K2 TeO3
[5] = tested on: Rhodopseudomonas palustris 1e5; test: Intrinsic HLR to TeO3^2- (MIC); assay type: cell-based
[6] = tested on: Rhodocyclus gelatinosus str-1; test: Intrinsic HLR to TeO3^2- (MIC); assay type: cell-based
[7] = tested on: R. sphaeroides PRKA^- B^-; test: Intrinsic HLR to tellurite in R. sphaeroides mutants (MIC); assay type: cell-based, Rhodobacter sphaeroides; details: for MIC K2 TeO3: SMM succinate
Procedure: as §1, §2, §3, §4

[8] = tested on: R. sphaeroides CFXA^- B^-; test: as above; assay type: cell-based, Rhodobacter sphaeroides; details: for MIC K2 TeO3: SMM succinate
Procedure: as §1, §2, §3, §4

R. sphaeroides BC17 = test: as above; assay type: cell-based, Rhodobacter sphaeroides; details: for MIC K2 TeO3: SMM succinate
Procedure: as §1, §2, §3, §4

[9] = aerobic, ( ) = resistance but no deposition of Te^0

O=[Te]([O-])[O-].[K+].[K+] [K2 TeO3]
Gas evolved (R. sphaeroides 2.4.1 [1]; 1 atm, 303° K., major component H2): 8.37 mmol | Water displaced from the gas collection vessel (R. sphaeroides 2.4.1 [1]; culture grown in presence of TeO3^2-): 208 mL | H2 evolved per mmole of Te^o deposited (R. sphaeroides 2.4.1 [1]; per mmole Te^o): approximately 11.5 mmoles | Appearance of cells / metal deposit (R. sphaeroides 2.4.1 [2]): intracellular accumulation of a dense metal deposit; also recorded: produced a black deposit which did not diffuse into the medium | Gas evolution (R. sphaeroides 2.4.1 [2]): +++ + | Gas evolution in words (R. sphaeroides 2.4.1 [2]): Copious gas evolution | Resistance in words ([3]; aerobic): intrinsic high level resistance | MIC K2 TeO3 ([3]; aerobic, minimal medium): 800 µg/mL | MIC relative to E. coli ([3]; aerobic, tellurite): at least 80 times | MIC K2 TeO3 ([3]; photosynthetic, 10 W/m^2): 500 µg/mL | MIC K2 TeO3 (R. sphaeroides MM1004; aerobic): 800 µg/mL | MIC K2 TeO3 (R. sphaeroides MM1004; photosynthetic 10 W/m^2): 550 µg/mL | FADH2 oxidation ([4]; cytoplasm): 37 nmol/min/mg | FADH2 oxidation ([4]; membrane): 28 nmol/min/mg | FADH2 oxidation ([4]; periplasm): 3 nmol/min/mg | MIC K2 TeO3 ([5]; aerobic, minimal medium): 200 µg/mL | MIC K2 TeO3 ([5]; photosynthetic, 10 W/m^2): 100 µg/mL | Resistance to tellurite in words [6]: low resistance | MIC K2 TeO3 ([6]; aerobic, minimal medium): 5 µg/mL | MIC K2 TeO3 ([6]; photosynthetic, 10 W/m^2): 10 µg/mL | MIC K2 TeO3 [7, 9]: 150 µg/mL | MIC K2 TeO3 ([7]; anaerobic-dark, 60 mM DMSO): < 10 µg/mL | Concentration to which strain is resistant ([7]; aerobic): < 200 µg/mL | MIC K2 TeO3 [8, 9]: 200 µg/mL | MIC K2 TeO3 ([8]; anaerobic-dark, 60 mM DMSO): < 10 µg/mL | Concentration to which strain is resistant ([8]; aerobic): < 200 µg/mL | MIC K2 TeO3 (R. sphaeroides BC17; aerobic): < 10 µg/mL | MIC K2 TeO3 (R. sphaeroides BC17; anaerobic-dark, 60 mM DMSO): < 10 µg/mL | Concentration to which strain is sensitive (R. sphaeroides BC17; all growth conditions): 10 µg/mL
